Laboratory results published in patent US20100292135A1 (priority 2005, published 2010).

How the values were obtained:
[1] = test system: RecA-dependent SOS induction in GY7313 cells; experiment: SOS induction by MMC in permeabilized E. coli (sfi-lacZ reporter, β-galactosidase); format: cell-based; details: MMC-induced
RecA protein [2] = target: T1, RecA protein (Escherichia coli, UniProt P0A7G6); experiment: biochemical; format: binding, E. coli
RecA protein [3] = target: T1, RecA protein; format: biochemical, E. coli
[4] = test system: wild type (AB1157) bacteria; experiment: Development of chloramphenicol resistance (mean latency time, OD600 growth); format: cell-based; details: in the presence of RecA
RecA protein [5] = target: T1, RecA protein; details: cited from earlier work

T1 sequence (P0A7G6 2-353): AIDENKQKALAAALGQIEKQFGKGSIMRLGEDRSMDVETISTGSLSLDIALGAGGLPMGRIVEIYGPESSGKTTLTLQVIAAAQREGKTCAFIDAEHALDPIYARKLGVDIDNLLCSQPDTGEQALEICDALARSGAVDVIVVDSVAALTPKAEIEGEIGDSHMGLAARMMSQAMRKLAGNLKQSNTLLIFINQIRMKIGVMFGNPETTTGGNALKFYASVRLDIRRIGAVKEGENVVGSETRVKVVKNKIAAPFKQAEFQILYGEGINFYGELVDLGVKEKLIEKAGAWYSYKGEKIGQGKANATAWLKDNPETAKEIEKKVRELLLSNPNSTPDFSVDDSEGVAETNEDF

O=P(O)(O)OP(=O)(O)OC[C@H]1O[C@@H](n2cnc3c(Nc4cccc5ccccc45)ncnc32)[C@H](O)[C@@H]1O [Compound 1, N^6-(1-Naphthyl)-Adenosine-5′-O-Diphosphate]
inhibition of SOS induction (β-galactosidase) [1]: significantly inhibits SOS induction

Nc1ncnc2c1ncn2[C@@H]1O[C@H](COP(=O)(O)OP(=O)(O)O)[C@@H](O)[C@H]1O [ADP, adenosine diphosphate]
Kd (RecA protein [2]): 84 ± 27 µM

O[C@@H](CS)[C@@H](O)CS [L-DTT, 1,4-dithio-L-threitol]
inhibition of RecA ATPase activity (in words) (RecA protein [3]): no inhibition

CCOS(C)(=O)=O [EMS]
effect on chloramphenicol resistance development [4]: speed resistance development

NCCCCNCCCN [spermidine]
effect on chloramphenicol resistance development [4]: retards resistance development

Nc1ncnc2c1ncn2[C@@H]1O[C@H](COP(=O)(O)OP(=O)(O)OP(=O)(O)O)[C@@H](O)[C@H]1O [ATP, adenosine triphosphate]
S0.5 for ATP, reported literature values (RecA protein [5]): 40 to 45 µM
Hill coefficient nH (RecA protein [3]): 3
Michaelis constant S0.5 for RecA and ATP (RecA protein [3]): 47 µM
